This note sets out measurements from patent US20240366543A1, “METHODS OF TREATING METHYLMALONIC ACIDEMIA AND PROPIONIC ACIDEMIA” (HemoShear Therapeutics, Inc., priority 2021, published 2024).

This data set in a line: Phase 2 study preliminary plasma pharmacokinetics in PA/MMA subjects. Format: in vivo, human. The settings on record: dose range of 1 mg/kg to 30 mg/kg, once or twice daily. As for the experimental part: Part A is the dose escalation phase to assess the initial safety and to confirm the pharmacologic activity of Compound 5 in subjects with PA and MMA. Screening for eligibility took place within 28 days of enrollment. All subjects were initially evaluated during a 4-week run-in period followed by within-subject dose escalation of 3 doses (1, 3, and 10 mg/kg QD of sodium 2,2-dimethylbutanoate); dose escalation interval of 4 weeks) to check for improvement in disease-related biomarkers.
Plasma will be analyzed by liquid chromatography with tandem mass spectrometry (LC-MS/MS) with a lower limit of quantitation of 0.100 μg/mL. Samples collected for analyses of Compound 5 (plasma/serum/whole blood)] concentration may also be used to evaluate safety or efficacy aspects related to concerns arising during or after the study.
Preliminary pharmacokinetics (PK) data from the first two subjects of Study described in Examples 7-8 was evaluated at 1 mg/kg, 3 mg/kg and 10 mg/kg of Compound 5 dosed once daily (QD).

Structures are written as SMILES.

Turning to `CCC(C)(C)C(=O)[O-].[Na+]` [Compound 5A, 2,2-dimethylbutyric acid sodium salt], the “Blood plasma concentrations versus dose” value is “dose proportional”.
